In paper PMC11642044 (International Journal of Molecular Sciences, 2024):
Where no end group is shown, it is not given here.

Experiments:
[1] = system: U87-MG cells; test: Intracellular Ca2+ mobilization by Gq-coupled receptor agonists (FLIPR, Fluo-4), U87-MG; format: cell-based, human; conditions: U87-MG, FLIPR, Fluo-4, 3 min, n = 3
Experimental: (§1) Cells were seeded in 96-well plates (clear bottom and black wall) at 2.5 × 10^4 cells per well on the day before assay. The cells (~80–100% confluence) were then washed with Hank’s balanced salt solution (HBSS) and aspirated, followed by addition of 100 μL of FLIPR labeling dye (containing Fluo-4 and probenecid in HBSS) to each well before incubation at 37 °C for 1 h. Finally, the 96-well plate containing the labeled cells was transferred to the FLIPR (Molecular Devices, San Jose, CA, USA), and 50 μL of HBSS (with or without agonists) was added to each well. The fluorescent signals that reflect the intracellular Ca^2+ transients were monitored by an excitation wavelength of 488 nm, and detection was undertaken with an emission wavelength from 510 to 570 nm for 3 min upon the drug treatments, as described previously.

[2] = system: 1321-N1 cells; test: Intracellular Ca2+ mobilization by Gq-coupled receptor agonists (FLIPR, Fluo-4), 1321-N1; format: cell-based, human; conditions: 1321-N1, FLIPR, Fluo-4, 3 min, n = 3
Experimental: as §1

[3] = system: primary astrocytes; test: Intracellular Ca2+ mobilization by Gq-coupled receptor agonists (FLIPR, Fluo-4), primary cortical astrocytes; format: cell-based, mouse; conditions: n = 4
Experimental: HEK293, U87-MG, 1321N1, SK-N-SH, and SK-N-MC cells were cultured in MEM supplemented with 10% (vol/vol) fetal bovine serum (FBS), 50 U/mL penicillin, and 50 μg/mL streptomycin. Primary astrocyte cultures were prepared from the cerebral cortexes of neonatal mice (P2). The cerebral hemispheres were isolated and transferred to ice-cold Hank’s buffer, and the meninges were carefully removed. Tissues were then minced into approximately 1 mm pieces, triturated, filtered through a 60 µm nylon screen, and collected by centrifugation at approximately 3000× g for 5 min. The cell pellets were dispersed with a pipette and resuspended in a medium containing 10% (vol/vol) FBS in low-glucose Dulbecco’s modified Eagle’s medium. After trituration, the cells were filtered through a 10 µm screen and then plated into 6-well plates at a density of 3 × 10^5 cells/mL and cultured for about 10 days. The medium was replaced twice per week. Dibutyryl cyclic adenosine monophosphate (DBcAMP; 0.15 mM, Sigma, St Louis, MO, USA) was added to induce differentiation when the cells were grown to 95% confluence. Primary mouse cortical neuronal cultures were obtained from E16 ICR mouse embryos. Briefly, cerebral cortices were removed from mouse embryos and mechanically dissociated in PBS with glucose (18 mM). Neurons were then seeded onto poly-L-lysine (1 mg/mL)-coated 96-well plates at 5 × 10^4 cells/well in a B27 Plus Neuronal culture system (Thermo Fisher Scientific), supplemented with 2 mM glutamine, 5 μM mercaptoethanol, 100 U/mL penicillin and 100 μg/mL streptomycin. The cultured neurons were maintained in a humidified incubator at 37 °C with 5% CO2 for 7 days prior to use.
as §1

[4] = system: B2R-mediated LIF secretion in U87-MG cells; test: Inhibition of bradykinin-induced LIF production (ELISA), U87-MG; format: cell-based, human; conditions: 10 μM inhibitor, 30 min pre-treatment, bradykinin 1 µM, 24 h
Experimental: Conditioned media were analyzed for the presence of multiple cytokines by using the cytokine multiplex assay kits (Merck Millipore, MA, USA) as previously described. Briefly, a bead mixture with various capture antibodies (50 μL) was added to a 96-well microtiter plate, followed by 50 μL of cytokine standard mix or test sample and then 25 μL of a biotinylated detection antibody mixture. The mixtures were incubated for 30 min at 25 °C with gentle shaking. Unbound antibodies were removed by three gentle washes. Finally, 50 μL of streptavidin–PE solution was added and incubated for another 30 min with gentle shaking. The detection beads were then washed again and resuspended in 120 μL of reading buffer. The Bio-Plex™ 200 system (Bio-Rad Laboratories, Hercules, CA, USA) with the Bio-Plex manager software (version 5.0) was utilized for signal detection and data analysis. Curve fitting was applied to each standard curve according to the manufacturer’s manual and sample concentrations were interpolated from the standard curves. Individual detections for LIF and IL-6 were performed using the corresponding ELISA kits from Abcam (Cambridge, UK) according to the manufacturer’s instructions.
The resulting Ca^2+ signal profiles were monitored by FLIPR for 3 min.

[5] = system: melatonin MT1 receptor with Gα16; format: cell-based, human
Experimental: Supplementary Methods (for Supplementary Figures) […]
(Merck Millipore, MA, USA). HEK293 cells (80-100% confluence in 6-well plates) stably expressing MT1R alone or together with Gα16 as described previously [Ref. 21] were treated with 1 μM of melatonin (Tocris Bioscience, Minneapolis, MN) in 1 mL of MEM per well without FBS for 24 h. The resulting conditioned media were collected in 1.5 mL microcentrifuge tubes, with the presence of secretory LIF and IL-6 quantified by ELISA assays (Abcam, Cambridge, UK) according to the manufacturer’s […]

[6] = system: STAT3 in SK-N-MC cells; test: STAT3 Tyr705 phosphorylation in SK-N-MC by conditioned media from agonist-treated U87-MG; format: cell-based, human; conditions: U87-MG treated with bombesin 1 μM, bradykinin 1 μM or histamine 10 μM, 24 h; media on SK-N-MC 15 min
Experimental: These conditioned media were either immediately applied to SK-N-SH/SK-N-MC cells (80–100% confluence) in 6-well plates for 15 min, or subjected to heat treatment on a 96 °C heat block for 5 min, and then cooled to 37 °C before they were applied to the SK-N-SH/SK-N-MC cells for 15 min. […] For the SK-N-MC-derived conditioned media, SK-N-MC cells (80–100% confluence) in a 10 cm culture dish were serum-starved in 10 mL of MEM (without FBS), with 1 mL of the resulting conditioned medium being collected at indicated time points (15 min, 1 h, 3 h, 6 h). Simultaneously, U87-MG cells (80–100% confluence) in 12-well plates were serum-starved in MEM for 6 h, followed by pretreatment of […] (5 μM, 15 min), and then challenged with the SK-N-MC-derived conditioned media (mentioned above) for 10 min before cell lysis. […]
SDS-PAGE and Western blotting were performed as described in our previous studies. […] The amount of protein in each sample was determined by detergent compatible (DC) protein assay according to the supplier’s instruction (Bio-Rad, Hercules, CA, USA). […] Resolved proteins were detected by specific primary antibodies and horseradish peroxidase-conjugated secondary antisera. The level of β-actin was determined as an internal control.

[7] = system: STAT3 in primary mouse astrocytes; test: STAT3 phosphorylation by direct application of cytokine, primary astrocytes; format: cell-based; conditions: 0–100 ng/mL, 15 min, n = 3
Experimental: To determine if the experimental cells were readily responsive to LIF and IL-6, SK-N-MC cells, mouse primary neurons and primary astrocytes (80–100% confluence in 12-well plates) were serum-starved for 6 h, followed by treatment of indicated concentrations (0–100 ng/mL) of LIF and IL-6 for 15 min. The subsequent cell lysates were subjected to SDS-PAGE and Western blot with specific antibodies to detect stimulatory phosphorylated forms and the total amounts of STAT3.
SDS-PAGE and Western blotting were performed as described in our previous studies. In brief, cells in 6-well plates (5 × 10^5 cells/well) were lysed in 500 μL of ice-cold lysis buffer (50 mM Tris-HCl at pH 7.5 containing 100 mM NaCl, 5 mM EDTA, 40 mM NaP2O7, 1% Triton X-100, 1 mM dithiothreitol, 200 μM Na3VO4, 100 μM phenylmethylsulfonyl fluoride, 2 μg/mL leupeptin, 4 μg/mL aprotinin, and 0.7 μg/mL pepstatin) and then gently shaken for 30 min. The amount of protein in each sample was determined by detergent compatible (DC) protein assay according to the supplier’s instruction (Bio-Rad, Hercules, CA, USA). Clarified lysates (30 μg protein per sample) were resolved on 12% SDS-polyacrylamide gels and then transferred to nitrocellulose membranes (Westborough, MA, USA). Resolved proteins were detected by specific primary antibodies and horseradish peroxidase-conjugated secondary antisera. The level of β-actin was determined as an internal control. Immunoblots were visualized by chemiluminescence with the WesternBright ECL reagents from Advansta (San Jose, CA, USA). Chemiluminescence signals were then detected by ChemiDoc imaging systems (Bio-Rad, Hercules, CA, USA) with the subsequent band densities quantified by ImageJ (https://imagej.net/ij/) analysis software (National Institutes of Health, MD, USA). All primary antibodies which specifically recognize B1R, B2R, ERK, p-ERK, p38, p-p38, JNK, p-JNK, STAT3, p-STAT3, and β-actin were applied at 1:1000 dilution for Western blotting.

Nc1ncnc2c1ncn2[C@@H]1O[C@H](COP(=O)(O)OP(=O)(O)OP(=O)(O)O)[C@@H](O)[C@H]1O [ATP]
intracellular Ca2+ response ([1]; 1 μM agonist): effective in U87-MG cells | intracellular Ca2+ response ([2]; 1 μM agonist): did not respond to ATP for triggering Ca^2+ transients | intracellular Ca2+ mobilization ([3]; 1 μM agonist): significantly stimulated Ca^2+ mobilization

Cn1c2ccccc2c2c3c(c4c5ccccc5n(CCC#N)c4c21)CNC3=O [Go6976]
inhibition of bradykinin-induced LIF secretion by protein kinase inhibitors [4]: Partial inhibition of LIF secretion

COc1cccc(-c2cc(=O)c3ccccc3o2)c1N [PD98059]
inhibition of bradykinin-induced LIF secretion by protein kinase inhibitors [4]: found to require

C[S+]([O-])c1ccc(-c2nc(-c3ccncc3)c(-c3ccc(F)cc3)[nH]2)cc1 (centres unmarked) [SB203580]
inhibition of bradykinin-induced LIF secretion by protein kinase inhibitors [4]: found to require

Oc1c2ccccc2c2c3c(cccc13)N=N2 [SP600125]
inhibition of bradykinin-induced LIF secretion by protein kinase inhibitors [4]: partially inhibited bradykinin-induced LIF secretion

CN(C)S(=O)(=O)c1ccc2c(c1)/C(=C/c1cc3c([nH]1)CCCC3)C(=O)N2 [SU6656]
inhibition of bradykinin-induced LIF secretion by protein kinase inhibitors [4]: found to require

N[C@@H](CCC(=O)O)C(=O)O [glutamate]
intracellular Ca2+ mobilization ([3]; 1 μM agonist): significantly stimulated Ca^2+ mobilization

COc1ccc2[nH]cc(CCNC(C)=O)c2c1 [melatonin]
IL-6 release [5]: induced the release of both LIF and IL-6 | LIF release [5]: induced the release of both LIF and IL-6

CNC[C@H](O)c1cccc(O)c1 [phenylephrine]
intracellular Ca2+ mobilization ([3]; 10 μM agonist): significantly stimulated Ca^2+ mobilization

CCCCC[C@H](O)/C=C/[C@H]1[C@H](O)CC(=O)[C@@H]1C/C=C\CCCC(=O)O [prostaglandin E2]
intracellular Ca2+ mobilization ([3]; 1 μM agonist): significantly stimulated Ca^2+ mobilization

NCCc1c[nH]c2ccc(O)cc12 [serotonin]
intracellular Ca2+ response ([1]; 10 μM agonist): could not trigger the activity | intracellular Ca2+ response ([2]; 10 μM agonist): could not trigger the activity

CCCCCCCCCCCCC/C=C/[C@@H](O)[C@@H](N)COP(=O)(O)O [sphingosine-1-phosphate]
intracellular Ca2+ response ([1]; 1 μM agonist): significantly stimulated intracellular Ca^2+ responses | intracellular Ca2+ response ([2]; 1 μM agonist): significantly stimulated intracellular Ca^2+ responses | intracellular Ca2+ mobilization ([3]; 1 μM agonist): significantly stimulated Ca^2+ mobilization

angiotensin II (DRVYIHPF; Angiotensin-2; UniProt P01019 25-32, looked up)
intracellular Ca2+ response ([1]; 1 μM agonist): effective in U87-MG cells

bombesin
intracellular Ca2+ response ([1]; 1 μM agonist): significantly stimulated intracellular Ca^2+ responses | intracellular Ca2+ response ([2]; 1 μM agonist): significantly stimulated intracellular Ca^2+ responses | intracellular Ca2+ mobilization ([3]; 1 μM agonist): significantly stimulated Ca^2+ mobilization | STAT3 Tyr705 phosphorylation by conditioned media [6]: sometimes failed to induce STAT3 phosphorylation

endothelin
intracellular Ca2+ response ([2]; 100 nM agonist): elicited Ca^2+ responses in 1321-N1 cells | intracellular Ca2+ mobilization ([3]; 100 nM agonist): significantly stimulated Ca^2+ mobilization

interleukin-6 [IL-6]
STAT3 phosphorylation [7]: significant stimulatory phosphorylation of STAT3

neurokinin B
intracellular Ca2+ mobilization ([3]; 1 μM agonist): significantly stimulated Ca^2+ mobilization

neuromedin U25 (FRVDEEFQSPFASQSRGYFLFRPRN; ends and bridges not checked; UniProt P48645 142-166, looked up)
intracellular Ca2+ response ([1]; 1 μM agonist): effective in U87-MG cells

neurotensin
intracellular Ca2+ response ([1]; 1 μM agonist): could not trigger the activity | intracellular Ca2+ response ([2]; 1 μM agonist): could not trigger the activity

oxytocin
intracellular Ca2+ response ([1]; 1 μM agonist): effective in U87-MG cells | intracellular Ca2+ mobilization ([3]; 1 μM agonist): significantly stimulated Ca^2+ mobilization
